Results on 3 molecules are retold here after doi:10.1101/2025.10.26.684696v1 (bioRxiv, 2025).

A short description of data set [1]: Stability in simulated intestinal fluid. The format is in vitro ADME. The conditions noted are these: pH 6.5.
The nature of data set [2]: LogD7.4 by miniaturized shake-flask procedure. The settings on record: miniaturized shake-flask procedure at pH 7.4. The format is physicochemical.
Data set [3] is described as follows: Caco-2 cell permeability. It is filed as in vitro ADME.
The nature of data set [4]: Stability in simulated gastric fluid. The format is in vitro ADME. The conditions noted are these: pH 1.6.
A short description of data set [5]: Stability in rat liver microsomes. It is filed as in vitro ADME.
Data set [6] can be described thus: Stability in human plasma. The format is in vitro ADME.
For data set [7] the following is noted: reference compound; cited from earlier work.
For data set [8] the following is noted: reference compound; cited from earlier work. The source holds these as a separate data set.

Residues, ends and D or L forms follow the SMILES beside them.

As to `N=C(N)NCCC[C@@H]1NC(=O)CNC(=O)CNC(=O)[C@H](Cc2c[nH]cn2)NC(=O)CNC(=O)CNC(=O)[C@H](Cc2c[nH]c3ccccc23)NC(=O)[C@H](Cc2c[nH]c3ccccc23)NC(=O)CNC(=O)[C@H](CCCCN)NC(=O)CNC(=O)[C@H](CO)NC(=O)CNC(=O)CNC(=O)[C@H](Cc2c[nH]c3ccccc23)NC1=O` [SP4] (cyclo(GGHGGRWGGSGKGWW)), the half-life in data set [1] is 7.6 h. In data set [2], this molecule registered a LogD7.4 of 0.86. Also, in data set [3], the Papp A→B turned out to be 1.78 ×10⁻⁶ cm/s, the Papp B→A was determined as 2.15 ×10⁻⁶ cm/s and the efflux ratio is approximately 1.2. The molecule also gave a half-life in data set [4] of 1.8 h. For the same molecule, the half-life in data set [5] is 4.7 h. This molecule showed a fraction remaining at 1 h in data set [6] of 89.4%.
As to `CC[C@H]1OC(=O)[C@H](C)[C@@H](O[C@H]2C[C@@](C)(OC)[C@@H](O)[C@H](C)O2)[C@H](C)[C@@H](O[C@@H]2O[C@H](C)C[C@H](N(C)C)[C@H]2O)[C@](C)(O)C[C@@H](C)C(=O)[C@H](C)[C@@H](O)[C@]1(C)O` [erythromycin], the “Stability in intestinal simulated fluids (t1/2)” value in data set [7] was 7.55 h.
In the case of `CC(C)[N+](C)(CCOC(=O)C1c2ccccc2Oc2ccccc21)C(C)C` [propantheline], the “Human plasma stability (t1/2)” value in data set [8] is on record as 2.6 min.
